What was measured:
Assay in all cases: relative viability (nuclei count vs DMSO), 5 days (fraction); higher = more cells survive
[1] = compound: C1CC1C(=O)NC2=NNC3=C2C=CC(=C3)C4=CC(=CC=C4)C(=O)NC5CC5 [XMD13-2] + O=C(CCCCCCC(=O)Nc1ccccc1)NO [Vorinostat] (partner 1 µM)
Method in brief: (§1)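 For relative viability, nuclei counts in treated wells were divided by those in vehicle wells. Lung cancer cell lines had been pin-tool dosed in 1536-well plates the day after seeding and cultured for 5 days, then fixed and stained in one step (final 0.05% Triton X-100, 1% formaldehyde, 1 ug/ml Hoechst) and imaged at 4×. Doses were one drug alone or a fixed anchor-drug dose plus five library-drug doses (not always all listed) in √10 steps, and values are duplicate-plate medians.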

[2] = compound: Cc1nc(Nc2ncc(C(=O)Nc3c(C)cccc3Cl)s2)cc(N2CCN(CCO)CC2)n1 [Dasatinib] + CC(=O)Nc1cccc(-n2c(=O)n(C3CC3)c(=O)c3c(Nc4ccc(I)cc4F)n(C)c(=O)c(C)c32)c1 [Trametinib] (partner 0.02 µM)
Method in brief: as §1

[3] = compound: Cc1nc(Nc2ncc(C(=O)Nc3c(C)cccc3Cl)s2)cc(N2CCN(CCO)CC2)n1 [Dasatinib] + C[C@]1(O)C[C@@H](c2nc(-c3ccc4ccc(-c5ccccc5)nc4c3)c3c(N)nccn32)C1 [Linsitinib] (partner 1 µM)
Method in brief: as §1

[4] = compound: Cc1nc(Nc2ncc(C(=O)Nc3c(C)cccc3Cl)s2)cc(N2CCN(CCO)CC2)n1 [Dasatinib] + Cc1cc(Nc2cc(N3CCN(C)CC3)nc(Sc3ccc(NC(=O)C4CC4)cc3)n2)n[nH]1 [Tozasertib] (partner 0.1 µM)
Method in brief: as §1

| Cell Line | relative viability ([1]; first compound 0.05 µM) | relative viability ([1]; first compound 0.1581 µM) | relative viability ([1]; first compound 0.5 µM) | relative viability ([1]; first compound 1.581 µM) | relative viability ([1]; first compound 5 µM) | relative viability ([2]; first compound 0.005 µM) | relative viability ([2]; first compound 0.01581 µM) | relative viability ([2]; first compound 0.05 µM) | relative viability ([2]; first compound 0.1581 µM) | relative viability ([2]; first compound 0.5 µM) | relative viability ([3]; first compound 0.005 µM) | relative viability ([3]; first compound 0.01581 µM) | relative viability ([3]; first compound 0.05 µM) | relative viability ([3]; first compound 0.1581 µM) | relative viability ([3]; first compound 0.5 µM) | relative viability ([4]; first compound 0.005 µM) | relative viability ([4]; first compound 0.01581 µM) | relative viability ([4]; first compound 0.05 µM) | relative viability ([4]; first compound 0.1581 µM) | relative viability ([4]; first compound 0.5 µM) |
| --- | --- | --- | --- | --- | --- | --- | --- | --- | --- | --- | --- | --- | --- | --- | --- | --- | --- | --- | --- | --- |
| HCC-366 | 0.439 | 0.291 | 0.386 | 0.379 | 0.399 | 0.283 | 0.182 | 0.218 | 0.16 | 0.117 | 0.122 | 0.0525 | 0.067 | 0.0321 | 0.04 | 0.115 | 0.109 | 0.109 | 0.0407 | 0.0371 |
| HCC-827 | 0.838 | 0.937 | 0.956 | 0.765 | 1.06 | 0.545 | 0.486 | 0.492 | 0.157 | 0.132 | 1.03 | 1.05 | 0.971 | 0.581 | 0.102 | 0.457 | 0.409 | 0.399 | 0.177 | 0.101 |
| HOP-62 | 0.612 | 0.587 | 0.658 | 0.694 | 0.537 | 0.344 | 0.333 | 0.32 | 0.211 | 0.162 | 1.07 | 1.07 | 0.85 | 0.682 | 0.297 | 0.387 | 0.372 | 0.393 | 0.315 | 0.242 |
| IA-LM | 0.954 | 1.05 | 0.96 |  | 0.718 |  |  |  |  |  | 0.787 | 0.732 | 0.65 | 0.712 | 0.475 |  |  |  |  |  |
| LC-2-ad | 0.721 | 0.703 | 0.717 | 0.696 | 0.722 | 0.914 | 0.906 | 0.909 | 0.735 | 0.457 | 0.685 | 0.702 | 0.6 | 0.26 | 0.176 | 0.421 | 0.366 | 0.315 | 0.271 | 0.249 |
| LCLC-97TM1 | 0.769 | 0.551 | 0.747 | 0.532 | 0.301 | 0.221 | 0.14 | 0.174 | 0.0952 | 0.0916 | 0.17 | 0.203 | 0.2 | 0.163 | 0.129 | 0.187 | 0.211 | 0.244 | 0.217 | 0.159 |
| LCLC-103H | 0.891 | 0.83 | 0.817 | 0.696 | 0.751 | 0.687 | 0.598 | 0.574 | 0.535 | 0.516 | 1.07 | 0.961 | 0.88 | 0.568 | 0.388 | 0.485 | 0.461 | 0.453 | 0.3 | 0.129 |
| LK-2 | 0.439 | 0.201 | 0.212 | 0.198 | 0.137 | 0.765 | 0.399 | 0.414 | 0.263 | 0.246 | 0.476 | 0.281 | 0.268 | 0.134 | 0.198 | 0.16 | 0.15 | 0.141 | 0.173 | 0.148 |
| LOU-NH91 | 1.05 | 0.971 | 0.935 | 0.852 | 1.02 | 0.79 | 0.752 | 0.698 | 0.562 | 0.393 | 0.961 | 0.847 | 0.715 | 0.549 | 0.412 | 0.721 | 0.652 | 0.637 | 0.556 | 0.307 |
| LU99A | 0.536 | 0.43 | 0.522 | 0.561 | 0.468 | 0.539 | 0.576 | 0.458 | 0.372 | 0.328 | 0.494 | 0.481 | 0.434 | 0.199 | 0.173 | 0.233 |  | 0.243 | 0.209 | 0.23 |
| NCI-H522 | 0.856 | 0.873 | 0.805 | 0.982 | 0.907 | 0.767 | 0.63 | 0.668 | 0.591 | 0.599 |  |  |  |  |  | 0.568 | 0.483 | 0.539 | 0.466 | 0.437 |
| NCI-H1299 |  |  |  |  |  |  |  |  |  |  | 0.978 | 0.996 | 0.93 | 0.286 | 0.146 |  |  |  |  |  |
| NCI-H1563 |  |  |  |  |  |  |  |  |  |  | 0.961 | 0.794 | 0.779 | 0.761 | 0.601 |  |  |  |  |  |
| NCI-H1623 |  |  |  |  |  |  |  |  |  |  |  |  |  |  |  | 0.447 | 0.329 | 0.442 | 0.351 | 0.363 |
| NCI-H1648 | 0.733 |  | 0.42 | 0.391 | 0.459 | 0.437 | 0.352 | 0.44 | 0.235 | 0.175 |  |  |  |  |  | 0.624 | 0.545 | 0.327 | 0.233 | 0.14 |
| NCI-H1650 | 0.661 | 0.584 | 0.576 | 0.594 | 0.555 | 0.667 | 0.493 | 0.406 | 0.313 | 0.216 |  |  |  |  |  | 0.356 | 0.302 | 0.342 | 0.233 | 0.153 |
| NCI-H1703 |  |  |  |  |  |  |  |  |  |  | 0.139 | 0.29 | 0.247 | 0.0903 | 0.144 |  |  |  |  |  |
| NCI-H1792 |  |  |  |  |  | 0.343 | 0.272 | 0.324 | 0.218 | 0.0771 | 0.491 | 0.355 | 0.377 | 0.219 | 0.0845 |  |  |  |  |  |
| NCI-H2170 | 0.904 | 0.753 | 0.855 | 0.794 | 0.809 | 0.929 | 0.828 | 0.834 | 0.651 | 0.365 |  |  |  |  |  | 0.698 | 0.622 | 0.722 | 0.564 | 0.247 |
| NCI-H2342 | 0.741 | 0.736 | 0.831 | 0.687 | 0.773 | 0.662 | 0.722 | 0.774 | 0.515 | 0.294 |  |  |  |  |  | 0.524 | 0.427 | 0.333 | 0.356 | 0.218 |
| SW 900 | 0.721 | 0.42 | 0.501 | 0.45 | 0.623 | 0.783 | 0.474 | 0.405 | 0.393 | 0.188 |  |  |  |  |  | 0.609 | 0.564 | 0.607 | 0.46 | 0.359 |

From the supplement of paper PMC10307832
